Assay results published in the NIST ThermoML archive (doi:10.1021/je0497303).

Experiment: xn = mol fraction of the nth substance listed
Conditions: 101.3 kPa, Liquid, Taylor dispersion method

Compound	binary diffusion coefficient (298.15 K, x2 = 0.03)	binary diffusion coefficient (298.15 K, x2 = 0.1)	binary diffusion coefficient (298.15 K, x2 = 0.3)	binary diffusion coefficient (298.15 K, x2 = 0.5)	binary diffusion coefficient (298.15 K, x2 = 0.7)	binary diffusion coefficient (298.15 K, x2 = 0.9)	binary diffusion coefficient (298.15 K, x2 = 0.97)	binary diffusion coefficient (298.15 K, x2 = 0)	binary diffusion coefficient (298.15 K, x2 = 1)	also measured
C1CCCCC1 [cyclohexane] + CCCO	8.3e-10 m2/s	6.6e-10 m2/s	3.9e-10 m2/s	4.2e-10 m2/s	6.5e-10 m2/s	1e-09 m2/s	1.15e-09 m2/s			
CCCCCC [hexane] + CCO	4.07e-09 m2/s	2.41e-09 m2/s	1.54e-09 m2/s	1.3e-09 m2/s	1.3e-09 m2/s	1.43e-09 m2/s	1.54e-09 m2/s	5.74e-09 m2/s	1.6e-09 m2/s	
Cc1ccccc1 [toluene] + CCCO	2.37e-09 m2/s	1.81e-09 m2/s	1e-09 m2/s	8.5e-10 m2/s	1.01e-09 m2/s	1.28e-09 m2/s	1.4e-09 m2/s	2.67e-09 m2/s	1.46e-09 m2/s	
ClC(Cl)(Cl)Cl [tetrachloromethane] + CCCCO	7e-10 m2/s	5e-10 m2/s	2.9e-10 m2/s	3.2e-10 m2/s	5.4e-10 m2/s	6.5e-10 m2/s	6.9e-10 m2/s	1.47e-09 m2/s	7.2e-10 m2/s	binary diffusion coefficient (308.15 K, x2 = 0): 1.74e-09 m2/s; binary diffusion coefficient (308.15 K, x2 = 0.03): 9.3e-10 m2/s; binary diffusion coefficient (308.15 K, x2 = 0.1): 7.1e-10 m2/s; binary diffusion coefficient (308.15 K, x2 = 0.3): 5.2e-10 m2/s; binary diffusion coefficient (308.15 K, x2 = 0.5): 5.6e-10 m2/s; binary diffusion coefficient (308.15 K, x2 = 0.7): 6.5e-10 m2/s; binary diffusion coefficient (308.15 K, x2 = 0.9): 8e-10 m2/s; binary diffusion coefficient (308.15 K, x2 = 0.97): 8.9e-10 m2/s; binary diffusion coefficient (308.15 K, x2 = 1): 9.4e-10 m2/s
CCCCCC [hexane] + CCCO	3.37e-09 m2/s	2.17e-09 m2/s	1.38e-09 m2/s	1.15e-09 m2/s	1.08e-09 m2/s	1.09e-09 m2/s	1.03e-09 m2/s	5.2e-09 m2/s	1.02e-09 m2/s	
CO [methanol] + O										binary diffusion coefficient (298.15 K, x1 = 0): 1.57e-09 m2/s; binary diffusion coefficient (298.15 K, x1 = 0.1): 1.22e-09 m2/s; binary diffusion coefficient (298.15 K, x1 = 0.3): 9.5e-10 m2/s; binary diffusion coefficient (298.15 K, x1 = 0.5): 1.03e-09 m2/s; binary diffusion coefficient (298.15 K, x1 = 0.7): 1.37e-09 m2/s; binary diffusion coefficient (298.15 K, x1 = 0.9): 1.87e-09 m2/s; binary diffusion coefficient (298.15 K, x1 = 0.97): 2.05e-09 m2/s
CCO [ethanol] + O										binary diffusion coefficient (298.15 K, x1 = 0.1): 7e-10 m2/s; binary diffusion coefficient (298.15 K, x1 = 0.2): 4.1e-10 m2/s; binary diffusion coefficient (298.15 K, x1 = 0.3): 3.8e-10 m2/s; binary diffusion coefficient (298.15 K, x1 = 0.5): 5.1e-10 m2/s; binary diffusion coefficient (298.15 K, x1 = 0.7): 7.6e-10 m2/s; binary diffusion coefficient (298.15 K, x1 = 0.9): 1.08e-09 m2/s
Cc1ccccc1 [toluene] + CCO	2.94e-09 m2/s	2.41e-09 m2/s	1.22e-09 m2/s	9.8e-10 m2/s	1.16e-09 m2/s	1.55e-09 m2/s	1.7e-09 m2/s	3.12e-09 m2/s	1.74e-09 m2/s	binary diffusion coefficient (308.15 K, x2 = 0): 3.61e-09 m2/s; binary diffusion coefficient (308.15 K, x2 = 0.03): 3.4e-09 m2/s; binary diffusion coefficient (308.15 K, x2 = 0.1): 2.9e-09 m2/s; binary diffusion coefficient (308.15 K, x2 = 0.3): 1.7e-09 m2/s; binary diffusion coefficient (308.15 K, x2 = 0.5): 1.35e-09 m2/s; binary diffusion coefficient (308.15 K, x2 = 0.7): 1.59e-09 m2/s; binary diffusion coefficient (308.15 K, x2 = 0.9): 1.89e-09 m2/s; binary diffusion coefficient (308.15 K, x2 = 0.97): 2.04e-09 m2/s; binary diffusion coefficient (308.15 K, x2 = 1): 2.11e-09 m2/s
ClC(Cl)(Cl)Cl [tetrachloromethane] + CCO	1.06e-09 m2/s	8.2e-10 m2/s	6.4e-10 m2/s	7.3e-10 m2/s	9.9e-10 m2/s	1.32e-09 m2/s	1.43e-09 m2/s	1.9e-09 m2/s	1.47e-09 m2/s	binary diffusion coefficient (303.15 K, x2 = 0): 2.15e-09 m2/s; binary diffusion coefficient (303.15 K, x2 = 0.03): 1.6e-09 m2/s; binary diffusion coefficient (303.15 K, x2 = 0.1): 9.9e-10 m2/s; binary diffusion coefficient (303.15 K, x2 = 0.3): 8.3e-10 m2/s; binary diffusion coefficient (303.15 K, x2 = 0.5): 8.7e-10 m2/s; binary diffusion coefficient (303.15 K, x2 = 0.7): 1.14e-09 m2/s; binary diffusion coefficient (303.15 K, x2 = 0.9): 1.45e-09 m2/s; binary diffusion coefficient (303.15 K, x2 = 0.97): 1.56e-09 m2/s; binary diffusion coefficient (303.15 K, x2 = 1): 1.61e-09 m2/s; binary diffusion coefficient (308.15 K, x2 = 0): 2.24e-09 m2/s; binary diffusion coefficient (308.15 K, x2 = 0.03): 1.8e-09 m2/s; binary diffusion coefficient (308.15 K, x2 = 0.1): 1.1e-09 m2/s; binary diffusion coefficient (308.15 K, x2 = 0.3): 9.5e-10 m2/s; binary diffusion coefficient (308.15 K, x2 = 0.5): 9.9e-10 m2/s; binary diffusion coefficient (308.15 K, x2 = 0.7): 1.28e-09 m2/s; binary diffusion coefficient (308.15 K, x2 = 0.9): 1.6e-09 m2/s; binary diffusion coefficient (308.15 K, x2 = 0.97): 1.76e-09 m2/s; binary diffusion coefficient (308.15 K, x2 = 1): 1.82e-09 m2/s
C1CCCCC1 [cyclohexane] + CCO	9.9e-10 m2/s	7.7e-10 m2/s	4.3e-10 m2/s	4.6e-10 m2/s	7.3e-10 m2/s	1.23e-09 m2/s	1.41e-09 m2/s			
ClC(Cl)(Cl)Cl [tetrachloromethane] + CCCO	8.3e-10 m2/s	6.1e-10 m2/s	3.9e-10 m2/s	4.6e-10 m2/s	6.6e-10 m2/s	8.3e-10 m2/s	9.1e-10 m2/s	1.61e-09 m2/s	9.5e-10 m2/s	
